The values that follow come from patent US10034886B2, “GLP-1 receptor modulators” (Celgene International II SÀRL, priority 2014, dated 2018).

Read-outs that look alike come from different tables or passages of the source.

The assay concerns the target T1, GLP-1R (Homo sapiens, UniProt P43220).
T1 construct: host or cells: GLP-1R CRE-bla CHO-K1 cells
Description: EC20 GLP-1(9-36) PAM cAMP assay: dose response of compound in the presence of fixed concentration of GLP-1(9-36). The class given is cell-based. To be noted: GLP-1R CRE-bla CHO-K1 cells, read-out: EC20 GLP-1(9-36) PAM EC50. The gist of the method:
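GLP-1R CRE-bla CHO-K1 cells treated 30 min at 37 °C with 12-point compound dose response plus fixed EC20 GLP-1(9-36), with IBMX, in HBSS/HEPES/0.1% BSA pH 7.4. Total cAMP measured by luminescent detection against standard curve; EC50 and Emax from non-linear regression.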
(Cyclic AMP is a second messenger, typically raised through Gs and lowered through Gi signalling.)

[1] abbreviates: compound dose response with fixed concentration of GLP-1(9-36).
The mark [2] stands for this setting: dose response of compound in presence of fixed concentration of GLP-1(9-36).

T1 sequence (P43220 24-463): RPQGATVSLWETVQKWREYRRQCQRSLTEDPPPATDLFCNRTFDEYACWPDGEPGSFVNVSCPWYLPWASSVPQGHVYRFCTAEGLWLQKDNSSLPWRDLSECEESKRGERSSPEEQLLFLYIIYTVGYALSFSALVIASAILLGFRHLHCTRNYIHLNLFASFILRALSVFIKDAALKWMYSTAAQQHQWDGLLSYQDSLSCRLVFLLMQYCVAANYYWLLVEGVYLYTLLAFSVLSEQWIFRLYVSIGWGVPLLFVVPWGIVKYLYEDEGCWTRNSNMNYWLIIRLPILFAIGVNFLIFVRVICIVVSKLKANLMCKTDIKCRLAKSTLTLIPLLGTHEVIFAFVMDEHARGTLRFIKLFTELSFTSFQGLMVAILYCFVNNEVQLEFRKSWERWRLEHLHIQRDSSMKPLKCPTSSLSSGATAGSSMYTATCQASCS
T1 sequence (P01275 100-127 partner limits assumed): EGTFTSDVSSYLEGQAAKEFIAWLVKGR

A word on the EC50: it is the concentration needed to bring the measured effect to its halfway point. With `CCC[C@H]1CC[C@H](C2CCN(c3cnc(-c4ccc(C[C@H](NC(=O)c5ccc(C(C)(C)C)s5)C(=O)N[C@H](CC)C(=O)O)cc4)nc3)CC2)CC1` [Compound 1443], the EC50 under setting [1] was below 800 nM.

For the compound `CC[C@H]1CC[C@H](c2ccc(-c3cnc(-c4ccc(C[C@H](NC(=O)c5ccc(C(C)(C)C)nc5)C(=O)O)cc4)nc3)cc2)CC1` [Compound 1367], the EC50 under setting [1] was below 800 nM.

`CC(C)(C)c1ccc(C(=O)N[C@@H](Cc2ccc(-c3ncc(-c4ccc(OCC5CC5)cc4)cn3)cc2)C(=O)N2CC(C(=O)O)C2)s1` [Compound 781]: the EC50 under setting [2] fell in the range of 2500 to 5000 nM.

In the case of `CCCCCCCOc1ccc(-c2cnc(-c3ccc(C[C@H](NC(=O)c4ccc(C(C)(C)C)s4)C(=O)N4CC(CN(C)C)C4)cc3)nc2)cc1` [Compound 975], the EC50 under setting [2] lay in the range of 5000 to 10000 nM.

With `Cc1cc(C)cc(-c2ccc(-c3cnc(-c4ccc(C[C@H](NC(=O)c5ccc(C(C)(C)C)s5)C(=O)N5CC(C(=O)O)C5)cc4)nc3)c(F)c2)c1` [Compound 1191], under setting [2], the EC50 was below 800 nM.

With `CCCCCCCOc1ccc(-c2cnc(-c3ccc(C[C@H](NC(=O)c4ccc(C(C)(C)C)s4)C(=O)N[C@@H](CC(=O)O)C(=O)NCC(N)=O)cc3)nc2)cc1` [Compound 530], under setting [2], the EC50 is below 800 nM.

For `CC(C)(C)c1ccc(C(=O)N[C@@H](Cc2ccc(-c3ncc(-c4ccc(-c5ccc(OC(F)(F)F)cc5F)cc4F)cn3)cc2)C(=O)N2CC(C(=O)O)C2)s1` [Compound 1203], the EC50 under setting [1] is below 800 nM.

As to `CC[C@H]1CC[C@H](c2ccc(-c3cnc(-c4ccc(C[C@H](NC(=O)c5cnn(C(C)(C)C)c5)C(=O)O)cc4)nc3)cc2)CC1` [Compound 1378], the concentration giving a half-maximal response (EC50) under setting [1] was below 800 nM.

As to `CCCCCCCOc1ccc(-c2cnc(-c3ccc(CC(NC(=O)c4ccc(C(C)(C)C)s4)C(=O)N[C@H](C(=O)O)[C@@H](C)CC)cc3)nc2)cc1` (some centres unmarked) [Compound 414], under setting [2], the 50% effective concentration (EC50) is below 800 nM.

`CCCCCCCOc1ccc(-c2cnc(-c3ccc(C[C@H](NC(=O)c4ccc(C(C)(C)C)s4)C(=O)N[C@@H](CC(=O)N(C)C)C(=O)O)cc3)nc2)cc1` [Compound 513]: under setting [2], the EC50 was below 800 nM.

Turning to `CCCC(C)CCOc1ccc(-c2cnc(-c3ccc(C[C@H](NC(=O)c4ccc(C(C)(C)C)cc4)C(=O)NCCC(=O)O)cc3)nc2)cc1` (some centres unmarked) [Compound 706], the EC50 under setting [2] is 800 to 2500 nM.

As for `CCCCCCCOc1ccc(-c2cnc(-c3ccc(C[C@H](NC(=O)c4ccc(C(C)(C)C)s4)C(=O)NC(C(=O)O)c4ccc(C(F)(F)F)cc4)cc3)nc2)cc1` (some centres unmarked) [Compound 618], the EC50 under setting [2] lay within 5000 to 10000 nM.

For the compound `CCCCCCOc1ccc(-c2cnc(-c3ccc(C[C@H](NC(=O)c4ccc(C(C)(C)C)s4)C(=O)N4CC(C(=O)O)C4)cc3)nc2)cc1` [Compound 777], the EC50 under setting [2] lay in the range of 800 to 2500 nM.

As to `CCCCCCCOc1ccc(-c2cnc(-c3ccc(C[C@H](NC(=O)c4ccc(CC(C)C)s4)C(=O)N[C@H](C)C(=O)O)cc3)nc2)cc1` [Compound 813], the EC50 under setting [2] is 800 to 2500 nM.

For the compound `CCCc1ccc(-c2cnc(-c3ccc(C[C@H](NC(=O)c4ccc(C(C)(C)C)cc4)C(=O)NCCC(=O)O)cc3)nc2)cc1` [Compound 687], the concentration giving a half-maximal response (EC50) under setting [2] lay in the range of 2500 to 5000 nM.

On to `CCCCc1ccc(-c2ccc(-c3cnc(-c4ccc(C[C@H](NC(=O)c5ccc(C(C)(C)C)s5)C(=O)O)cc4)nc3)c(F)c2)cc1` [Compound 1361], for which the EC50 under setting [1] lay within 800 to 2500 nM.

Turning to `C[C@@H](NC(=O)[C@H](Cc1ccc(-c2ncc(/C=C/c3ccc(Cl)cc3)cn2)cc1)NC(=O)c1ccc(C(C)(C)C)s1)C(=O)O` [Compound 1250], the EC50 under setting [1] fell in the range of 800 to 2500 nM.

As for `CCCCCCCCc1noc(-c2cnc(-c3ccc(C[C@H](NC(=O)c4ccc(C(C)(C)C)cc4)C(=O)NCCC(=O)O)cc3)nc2)n1` [Compound 755], the EC50 under setting [2] fell in the range of 2500 to 5000 nM.

`CCCCCCCOc1ccc(-c2cnc(-c3ccc(C[C@H](NC(=O)c4ccc(OC)cc4)C(=O)N4CC(C(=O)O)C4)cc3)nc2)cc1` [Compound 1109]: under setting [2], the half-maximal effective concentration (EC50) was in the range of 800 to 2500 nM.

Consider `CC(C)(C)c1ccc(C(=O)N[C@@H](Cc2ccc(-c3ncc(-c4ccc(C5CCC6(CC5)OCCO6)cc4)cn3)cc2)C(=O)N2CC(C(=O)O)C2)s1` [Compound 1186], for which the concentration giving a half-maximal response (EC50) under setting [2] was below 800 nM.

In the case of `CCCCCCCOc1ccc(-c2cnc(-c3ccc(C[C@H](NC(=O)c4cc5c(s4)CCC(C)C5)C(=O)N[C@H](C)C(=O)O)cc3)nc2)cc1` (some centres unmarked) [Compound 814], the EC50 under setting [2] was in the range of 800 to 2500 nM.

As for `CCCCCCCOc1ccc(-c2cnc(-c3ccc(C[C@H](NC(=O)c4ccc(C(C)(C)C)s4)C(=O)N(C)CC4CCN(CCOC)CC4)cc3)nc2)cc1` [Compound 971], under setting [2], the EC50 lay within 2500 to 5000 nM.

For `CCCCCCCOc1ccc(-c2cnc(-c3ccc(C[C@H](NC(=O)c4ccc(C(C)(C)C)s4)C(=O)NC(Cc4ccccc4)C(=O)O)cc3)nc2)cc1` (some centres unmarked) [Compound 611], the EC50 under setting [2] is below 800 nM.

For the compound `CCCCCCCOc1ccc(-c2cnc(-c3ccc(C[C@H](NC(=O)c4ccc(C(C)(C)C)s4)C(=O)NC(C(=O)O)c4ccco4)cc3)nc2)cc1` (some centres unmarked) [Compound 412], the EC50 under setting [2] was below 800 nM.

As for `CCCCCCCOc1ccc(-c2cnc(-c3ccc(C[C@H](NC(=O)c4ccc(C(C)(C)C)s4)C(=O)N4CC(N(C)C)C4)cc3)nc2)cc1` [Compound 976], the EC50 under setting [2] was 2500 to 5000 nM.

Turning to `C[C@@H](NC(=O)[C@H](Cc1ccc(-c2ncc(-c3ccc(-c4ccccc4)c(F)c3)cn2)cc1)NC(=O)c1ccc(C(C)(C)C)s1)C(=O)O` [Compound 1289], under setting [1], the concentration for a half-maximal effect (EC50) is below 800 nM.

Regarding `CCCCCCCOc1ccc(-c2cnc(-c3ccc(C[C@H](NC(=O)c4ccc(C(C)C)cc4)C(=O)N4CCC[C@H]4C(=O)O)cc3)nc2)cc1` [Compound 1074], the concentration for a half-maximal effect (EC50) under setting [2] lay within 800 to 2500 nM.

`CCCCCCCOc1ccc(-c2cnc(-c3ccc(C[C@H](NC(=O)c4ccc(CCC)s4)C(=O)N4CC[C@H](C(=O)O)C4)cc3)nc2)cc1` [Compound 864]: under setting [2], the EC50 fell in the range of 800 to 2500 nM.

Take `CC(C)(C)COc1ccc(-c2cnc(-c3ccc(C[C@H](NC(=O)c4ccc(C(C)(C)C)cc4)C(=O)NCCC(=O)O)cc3)nc2)cc1` [Compound 680]: under setting [2], the EC50 lay in the range of 5000 to 10000 nM.

On to `CCCCCCCOc1ccc2nc(-c3ccc(C[C@H](NC(=O)c4ccc(C(C)(C)C)cc4)C(=O)O)cc3)ncc2c1` [Compound 673, (S)-2-(4-(tert-butyl)benzamido)-3-(4-(6-(heptyloxy)quinazolin-2-yl)phenyl)propanoic acid], for which the 50% effective concentration (EC50) under setting [2] was 5000 to 10000 nM.

With `Cc1ccc(-c2cccc(-c3noc(-c4cnc(-c5ccc(C[C@H](NC(=O)c6ccc(C(C)(C)C)cc6)C(=O)NCCC(=O)O)cc5)nc4)n3)c2)cc1` [Compound 748], under setting [2], the EC50 fell in the range of 2500 to 5000 nM.

As to `CCCCCCCOc1ccc(-c2cnc(-c3ccc(C[C@@H](NC(=O)c4ccc(C(C)(C)C)cc4)C(=O)O)cc3)nc2)cc1` [Compound 191, (R)-2-(4-(tert-butyl)benzamido)-3-(4-(5-(4-(heptyloxy)phenyl)pyrimidin-2-yl)phenyl)propanoic acid], under setting [2], the 50% effective concentration (EC50) is 800 to 2500 nM.

In the case of `CC[C@H]1CC[C@H](c2ccc(-c3cnc(-c4ccc(C[C@H](NC(=O)c5ccc(C(C)C)s5)C(=O)O)cc4)nc3)cc2)CC1` [Compound 1389], the EC50 under setting [1] was below 800 nM.

Take `CCCCCCCOc1ccc(-c2cnc(-c3ccc(C[C@H](NC(=O)c4ccc(C(C)(C)C)s4)C(=O)N4CCC(C)(N)C4)cc3)nc2)cc1` (some centres unmarked) [Compound 988]: under setting [2], the EC50 lay within 5000 to 10000 nM.

For `CCCCCCCOc1ccc(-c2cnc(-c3ccc(C[C@H](NC(=O)c4ccc(C(C)(C)C)cc4)C(=O)NCCC(=O)O)cc3)nc2)cc1CC` [Compound 703], the EC50 under setting [2] was below 800 nM.

For the compound `CC(C)(C)c1ccc(C(=O)N[C@@H](Cc2ccc(-c3ncc(-c4ccc(-c5cccc(C(F)(F)F)c5)cc4)cn3)cc2)C(=O)O)s1` [Compound 1347], under setting [1], the concentration for a half-maximal effect (EC50) was below 800 nM.

As for `CCCCCCCCOc1ccc(-c2cnc(-c3ccc(C[C@H](NC(=O)c4ccc(C(C)(C)C)cc4)C(=O)N[C@H](C)C(=O)O)cc3)nc2)cc1` [Compound 723], under setting [2], the EC50 is 800 to 2500 nM.

As for `CCCCCCCOc1ccc(-c2cnc(-c3ccc(C[C@H](NC(=O)c4ccc(C(C)(C)C)cc4)C(=O)NCC(CC4CCOC4)C(=O)O)cc3)nc2)cc1` (some centres unmarked) [Compound 560], the 50% effective concentration (EC50) under setting [2] lay in the range of 800 to 2500 nM.

As for `CCCCCCCOc1ccc(-c2cnc(-c3ccc(C[C@H](NC(=O)c4ccc(CCCC)cc4)C(=O)N[C@H](C)C(=O)O)cc3)nc2)cc1` [Compound 819], the EC50 under setting [2] lay in the range of 2500 to 5000 nM.

Turning to `CCc1ccc(C(=O)N[C@@H](Cc2ccc(-c3ncc(-c4ccc([C@H]5CC[C@H](CC)CC5)cc4)cn3)cc2)C(=O)N2CC(C(=O)O)C2)nc1` [Compound 1342], the 50% effective concentration (EC50) under setting [1] was 800 to 2500 nM.

Consider `CCCCCCCOc1ccc(-c2cnc(-c3ccc(C[C@H](NC(=O)c4ccc(C(C)(C)C)cc4)C(=O)N[C@@H](CC(=O)O)C(=O)N4CCOCC4)cc3)nc2)cc1` [Compound 507], for which the 50% effective concentration (EC50) under setting [2] lay in the range of 800 to 2500 nM.

With `CCCCCCCOc1ccc(-c2cnc(-c3ccc(C[C@H](NC(=O)c4ccc(C(C)(C)C)s4)C(=O)N4CC[C@H](O)C4)cc3)nc2)cc1` [Compound 977], the EC50 under setting [2] lay within 5000 to 10000 nM.

For the compound `CCCCCCOc1ccc(-c2ccc(-c3ccc(C[C@H](NC(=O)c4ccc(C(C)(C)C)cc4)C(=O)O)cc3)cn2)cc1` [Compound 270], the EC50 under setting [2] was in the range of 2500 to 5000 nM.

As for `CC(C)(C)c1ccc(C(=O)N[C@@H](Cc2ccc(-c3ncc(-c4ccc(-c5ccccc5)cc4)cn3)cc2)C(=O)N2CC[C@H](C(=O)O)C2)s1` [Compound 769], the EC50 under setting [2] lay in the range of 5000 to 10000 nM.

For the compound `CCCOc1ccc(-c2cnc(-c3ccc(C[C@H](NC(=O)c4ccc(C(C)(C)C)s4)C(=O)NC(C(=O)O)C(O)c4ccccc4)cc3)nc2)cc1` (some centres unmarked) [Compound 933], the EC50 under setting [2] lay in the range of 5000 to 10000 nM.

Consider `CCCCCCCOc1ccc(-c2cnc(-c3ccc(CC(NC(=O)c4ccc(C(C)(C)C)s4)C(=O)N[C@@H](CC(C)C)C(=O)O)cc3)nc2)cc1` (some centres unmarked) [Compound 408], for which the EC50 under setting [2] lay within 800 to 2500 nM.

In the case of `CCCCCCCOc1ccc(-c2cnc(-c3ccc(C[C@H](NC(=O)c4ccc(C(C)(C)C)s4)C(=O)N4C[C@H](C#N)C[C@H]4C(=O)O)cc3)nc2)cc1` [Compound 641], the 50% effective concentration (EC50) under setting [2] is below 800 nM.
